pIC50: −log10 of the molar value. Activity calls are given as the source filed them. No cut-off for these calls is given here.

One molecule from ChEMBL document CHEMBL4616720 (J Med Chem, 2020) can be followed below.

The subject of data set [1] is A549. Description: Induction of apoptosis in human A549 cells assessed as induction of caspase-3 activation at 40 uM using Ac-DEVD-pNA as substrate preincubated for 24 hrs followed by substrate addition and measured after 2 hrs by microplate reader assay. It counts as functional, cell-based.
Data set [2] relates to HCT-116. As to the kind of experiment: Antiproliferative activity against human HCT116 cells assessed as reduction in cell growth measured after 48 hrs by CCK8 assay. The settings on record: HCT-116, 48 h. It counts as functional, cell-based.
The target of data set [3] is T1, Peptide deformylase, mitochondrial (Homo sapiens, UniProt Q9HBH1).
T1 sequence (Q9HBH1 whole entry): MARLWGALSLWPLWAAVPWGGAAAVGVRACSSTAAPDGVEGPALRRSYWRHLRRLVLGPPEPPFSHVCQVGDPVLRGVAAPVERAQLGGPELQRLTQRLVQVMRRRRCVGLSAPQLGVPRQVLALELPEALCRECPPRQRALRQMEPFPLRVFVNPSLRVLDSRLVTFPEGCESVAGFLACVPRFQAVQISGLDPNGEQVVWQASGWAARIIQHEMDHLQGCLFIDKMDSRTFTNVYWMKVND
Description: Inhibition of human PDF expressed in Escherichia coli BL21 pLysS using formyl-Met-Ala-His-Ala peptide as substrate measured after 1 hr by fluorescamine-based fluorescence assay.

Data set [4] concerns HL-60. As to the kind of experiment: Antiproliferative activity against human HL60 cells assessed as reduction in cell growth measured after 48 hrs by CCK8 assay. The settings on record: HL-60, 48 h. It counts as functional, cell-based. Background: Tetrazolium dyes change colour on reduction, which living cells bring about.
A short description of data set [5]: Selectivity index, ratio of IC50 for human MCF10A cells assessed as reduction in cell growth measured after 48 hrs by CCK8 assay to IC50 for human MCF7 cells assessed as reduction in cell growth measured after 48 hrs by CCK8. The class given is toxicity. The settings on record: MCF10A cells versus MCF7 cells, read-out: Ratio IC50.
Data set [6] in a line: Acute toxicity in iv dosed KM mouse administered as single dose measured for 14 days. It counts as organism-based. The conditions noted are these: in vivo.
The target in data set [7] is T2, Peptide deformylase, mitochondrial (Homo sapiens) (UniProt Q9HBH1).
T2 sequence (whole entry): T1 sequence (Q9HBH1 whole entry)
As to the kind of experiment: Inhibition of PDF in human A549 cells assessed as decrease in mtDNA encoded COX1 protein level measured after 48 hrs by Western blot analysis. The class given is cell-based.

Data set [8] concerns A549. As to the kind of experiment: Induction of apoptosis in human A549 cells assessed as early apoptotic cells at 40 uM measured after 48 hrs by Annexin V-FITC/propidium iodide staining based FACSClibur flow cytometry analysis (reference value: 0.40 %). It counts as functional. For orientation: Flow cytometry measures light scatter and fluorescence of single cells or particles in a stream.

The subject of data set [9] is MCF7. As to the kind of experiment: Antiproliferative activity against human MCF7 cells assessed as reduction in cell growth measured after 48 hrs by CCK8 assay. The class given is functional, cell-based. The settings on record: MCF7, 48 h.
The test system of data set [10] is HCT-116. As to the kind of experiment: Antitumor activity against human HCT116 cells xenografted in ip dosed BALB/c nude mouse assessed as tumor growth inhibition administered every 3 days for 21 days and measured every second day for 21 days during compound dosing by digital caliper method. The class given is functional, organism-based.
Data set [11] in a line: Toxicity in BALB/c nude mouse xenografted with human HCT116 cells assessed as adverse effect at 25 to 50 mg/kg, ip administered every 3 days for 21 days. It counts as organism-based, HCT-116. The conditions noted are these: in vivo. (In general: A xenograft is tissue or cells of one species grown in another, often human tumour cells in immunodeficient mice.)
Data set [12] has as its target T2, Peptide deformylase, mitochondrial (Homo sapiens). As to the kind of experiment: Inhibition of PDF in human MCF7 cells assessed as decrease in mtDNA encoded COX1 protein level measured after 48 hrs by Western blot analysis. The class given is cell-based.
A short description of data set [13]: Selectivity index, ratio of IC50 for human MCF10A cells assessed as reduction in cell growth measured after 48 hrs by CCK8 assay to IC50 for human SJSA1 cells assessed as reduction in cell growth measured after 48 hrs by CCK8. The class given is toxicity. The settings on record: MCF10A cells versus SJSA1 cells, read-out: Ratio IC50.
Data set [14] is described as follows: Selectivity index, ratio of IC50 for human MCF10A cells assessed as reduction in cell growth measured after 48 hrs by CCK8 assay to IC50 for human HL60 cells assessed as reduction in cell growth measured after 48 hrs by CCK8. It counts as toxicity. The settings on record: MCF10A cells versus HL60 cells, read-out: Ratio IC50.
In data set [15] the test system is SJSA-1. Description: Antiproliferative activity against human SJSA1 cells assessed as reduction in cell growth measured after 48 hrs by CCK8 assay. The class given is functional, cell-based. The settings on record: SJSA-1, 48 h.
Data set [16] can be described thus: Toxicity in KM mouse assessed as clinical changes at <262 mg/kg, ip administered as single dose measured for 14 days. The class given is organism-based. The conditions noted are these: in vivo, 336 h.
Data set [17] has as its system A549. Description: Induction of apoptosis in human A549 cells assessed as necrotic cells at 40 uM measured after 24 hrs by Annexin V-FITC/propidium iodide staining based FACSClibur flow cytometry analysis (reference value: 0.37 %). It counts as functional.
Data set [18] relates to MCF-10A. As to the kind of experiment: Cytotoxicity against human MCF10A cells assessed as reduction in cell growth measured after 48 hrs by CCK8 assay. The class given is cell-based.
In data set [19] the test system is A549. As to the kind of experiment: Induction of apoptosis in human A549 cells assessed as late apoptotic cells at 40 uM measured after 24 hrs by Annexin V-FITC/propidium iodide staining based FACSClibur flow cytometry analysis (reference value: 2.32 %). The class given is functional.
Data set [20] in a line: Oral bioavailability in Sprague-Dawley rat at 20 mg/kg measured up to 24 hrs by LC-MS/MS analysis. It counts as ADME, organism-based. The settings on record: in vivo.
Data set [21] deals with Histone deacetylase 1 (Homo sapiens, UniProt Q13547). As to the kind of experiment: Inhibition of HDAC1 (unknown origin) at 10 uM using Boc-Lys(Ac)-pNA as substrate preincubated for 20 mins followed by substrate addition and further incubated for 90 mins by fluorescence assay relative to control.
Chain of Histone deacetylase 1 (Q13547 whole entry): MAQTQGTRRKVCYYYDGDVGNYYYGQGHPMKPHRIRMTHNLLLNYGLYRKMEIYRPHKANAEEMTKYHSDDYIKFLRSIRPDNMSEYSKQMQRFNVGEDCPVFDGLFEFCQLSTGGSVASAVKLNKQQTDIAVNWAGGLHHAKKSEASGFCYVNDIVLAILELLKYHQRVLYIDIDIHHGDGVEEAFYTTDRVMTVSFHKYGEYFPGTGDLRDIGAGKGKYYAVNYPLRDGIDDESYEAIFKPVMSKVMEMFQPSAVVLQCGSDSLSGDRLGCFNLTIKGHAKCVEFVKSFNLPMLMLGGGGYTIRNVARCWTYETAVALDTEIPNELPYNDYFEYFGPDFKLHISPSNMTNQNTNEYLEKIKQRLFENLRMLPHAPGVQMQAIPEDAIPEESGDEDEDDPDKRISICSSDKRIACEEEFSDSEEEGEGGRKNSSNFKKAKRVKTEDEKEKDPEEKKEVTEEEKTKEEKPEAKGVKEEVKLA
Data set [22] in a line: Selectivity index, ratio of IC50 for human MCF10A cells assessed as reduction in cell growth measured after 48 hrs by CCK8 assay to IC50 for human A549 cells assessed as reduction in cell growth measured after 48 hrs by CCK8. It counts as toxicity. The settings on record: MCF10A cells versus A549 cells, read-out: Ratio IC50.
Data set [23] in a line: Cmax in Sprague-Dawley rat at 20 mg/kg, po measured at 0.25 hrs by LC-MS/MS analysis. The class given is ADME, organism-based. On the set-up: dose 20 mg/kg, route oral. The conditions noted are these: in vivo.

The pIC50 is the IC50 on a negative log10 scale, so that one unit is a factor of ten. Broadly, the LD50 is the dose expected to kill half of the subjects tested. For orientation: inhibition means the relative decrease from the control value, in per cent. Broadly, the Cmax is the highest concentration seen after dosing. For `O=C(C[C@@H](CC1CCCC1)C(=O)N1CC2(CC2)C[C@H]1c1nc(-c2ccc(F)cc2C(F)(F)F)no1)NO`, the result in [1] was inactive. For the same molecule, the pIC50 was 5.70 in data set [2]; 8.39 in data set [3]; 5.69 in data set [4]; 5.33 in data set [9]; 5.71 in [15]; 4.74 in [18]. Also, the selectivity ratio at 48 h in data set [5], in data set [13], in data set [14] and in data set [22] was 9 throughout. The same molecule yielded an LD50 at 336 h in data set [6] of 287 to 452 mg/kg. The inhibition result was “Dose-dependent effect” in [7], “Dose-dependent effect” in data set [12] and -0.35% in [21]. The Activity in data set [8] was 12.6%; in data set [11], “Non-Toxic”; in data set [16] it was “Non-Toxic”; in data set [17], 1.12%; in data set [19], 7.07%. Further, the TGI result in [10] is “Dose-dependent effect”. In [20], this molecule displayed an F of 23.5%. For the same molecule, the highest concentration (Cmax) in [23] was 617 ng/mL.
